This is an account of results in ChEMBL document CHEMBL5236633, “Multi-therapies Based on PARP Inhibition: Potential Therapeutic Approaches for Cancer Treatment” (J Med Chem, 2022).

Test [1] deals with MDA-MB-231. Description: Antiproliferative activity against human MDA-MB-231 cells assessed as cell growth inhibition incubated for 24 hrs by CCK-8 assay. In kind it is functional, cell-based. To be noted: MDA-MB-231, 24 h. (Formazan colour is commonly taken as a measure of viable cells.)
The target of test [2] is Protein cereblon/Poly [ADP-ribose] polymerase 1 (Homo sapiens, UniProt P09874+Q96SW2). Nature of the test: Protac activity at CRBN/PARP1 in human HeLa cells assessed as induction of PARP-1 degradation measured after 24 hrs by immunoblotting analysis. Format: cell-based. (In general: A western blot detects proteins with antibodies after separation by electrophoresis.)
Test [3] addresses T1, Poly [ADP-ribose] polymerase 1 (Homo sapiens, UniProt P09874). Nature of the test: Inhibition of PARP1 (unknown origin) incubated for 30 mins by fluorescence based analysis.
In test [4] the test system is A549. Description: Antiproliferative activity against human A549 cells assessed as cell growth inhibition. Format: functional, cell-based.
Test [5] deals with T1, Poly [ADP-ribose] polymerase 1. Nature of the test: Inhibition of PARP1 (unknown origin).
Test [6] concerns A549. Description: Antiproliferative activity against human A549 cells assessed as cell growth inhibition measured after 24 hrs by MTT assay. Particulars: A549, 24 h. Format: functional, cell-based.
In test [7] the target is Epidermal growth factor receptor (Homo sapiens, UniProt P00533). Nature of the test: Inhibition of EGFR (unknown origin).
For the next test, the system named is MDA-MB-436. Nature of the test: Antiproliferative activity against human BRCA1 -/- MDA-MB-436 cells assessed as cell growth inhibition. Format: functional, cell-based.
The target in test [8] is T2, Protein mono-ADP-ribosyltransferase PARP3 (Homo sapiens, UniProt Q9Y6F1).
T2 sequence (Q9Y6F1 whole entry): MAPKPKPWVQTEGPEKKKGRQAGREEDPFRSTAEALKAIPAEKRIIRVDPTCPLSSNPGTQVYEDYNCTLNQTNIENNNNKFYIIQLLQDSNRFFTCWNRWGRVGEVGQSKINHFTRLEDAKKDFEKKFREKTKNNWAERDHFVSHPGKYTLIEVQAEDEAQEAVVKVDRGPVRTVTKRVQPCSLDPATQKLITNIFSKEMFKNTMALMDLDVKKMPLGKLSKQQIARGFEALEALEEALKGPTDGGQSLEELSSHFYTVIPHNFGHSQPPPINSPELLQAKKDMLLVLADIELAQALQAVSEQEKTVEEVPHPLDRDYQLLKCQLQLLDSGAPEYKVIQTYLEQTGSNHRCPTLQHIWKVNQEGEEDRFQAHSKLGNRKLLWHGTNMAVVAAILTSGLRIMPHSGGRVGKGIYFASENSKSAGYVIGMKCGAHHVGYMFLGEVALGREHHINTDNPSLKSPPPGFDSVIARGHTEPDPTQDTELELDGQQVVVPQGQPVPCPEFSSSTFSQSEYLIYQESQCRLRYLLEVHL
Nature of the test: Inhibition of PARP3 (unknown origin).

The target of test [9] is T3, Protein mono-ADP-ribosyltransferase PARP16 (Homo sapiens, UniProt Q8N5Y8).
T3 sequence (Q8N5Y8 whole entry): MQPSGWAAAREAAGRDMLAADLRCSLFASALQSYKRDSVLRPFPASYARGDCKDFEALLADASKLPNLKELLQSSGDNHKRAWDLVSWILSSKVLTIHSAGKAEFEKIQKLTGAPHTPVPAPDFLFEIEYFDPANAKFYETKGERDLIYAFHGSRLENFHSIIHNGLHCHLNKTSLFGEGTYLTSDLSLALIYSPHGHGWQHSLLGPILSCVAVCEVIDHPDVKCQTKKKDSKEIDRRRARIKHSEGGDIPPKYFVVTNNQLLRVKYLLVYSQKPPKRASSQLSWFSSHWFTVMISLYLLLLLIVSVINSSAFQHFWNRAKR
Description: Inhibition of PARP16 (unknown origin).

For test [10], the system named is MDA-MB-231. Description: Antiproliferative activity against human MDA-MB-231 cells assessed as cell growth inhibition at 10 uM incubated for 24 hrs by CCK-8 assay relative to control. In kind it is functional. The arrangement: scale not given: the % may be the effect or the level left.
Test [11] concerns MDA-MB-231. Description: Antiproliferative activity against human MDA-MB-231 cells assessed as cell growth inhibition incubated for 24 hrs in presence of nutlin-3 by CCK-8 assay. To be noted: MDA-MB-231, 24 h.

pIC50: −log10 of the molar value.

T1 sequence (P09874 whole entry): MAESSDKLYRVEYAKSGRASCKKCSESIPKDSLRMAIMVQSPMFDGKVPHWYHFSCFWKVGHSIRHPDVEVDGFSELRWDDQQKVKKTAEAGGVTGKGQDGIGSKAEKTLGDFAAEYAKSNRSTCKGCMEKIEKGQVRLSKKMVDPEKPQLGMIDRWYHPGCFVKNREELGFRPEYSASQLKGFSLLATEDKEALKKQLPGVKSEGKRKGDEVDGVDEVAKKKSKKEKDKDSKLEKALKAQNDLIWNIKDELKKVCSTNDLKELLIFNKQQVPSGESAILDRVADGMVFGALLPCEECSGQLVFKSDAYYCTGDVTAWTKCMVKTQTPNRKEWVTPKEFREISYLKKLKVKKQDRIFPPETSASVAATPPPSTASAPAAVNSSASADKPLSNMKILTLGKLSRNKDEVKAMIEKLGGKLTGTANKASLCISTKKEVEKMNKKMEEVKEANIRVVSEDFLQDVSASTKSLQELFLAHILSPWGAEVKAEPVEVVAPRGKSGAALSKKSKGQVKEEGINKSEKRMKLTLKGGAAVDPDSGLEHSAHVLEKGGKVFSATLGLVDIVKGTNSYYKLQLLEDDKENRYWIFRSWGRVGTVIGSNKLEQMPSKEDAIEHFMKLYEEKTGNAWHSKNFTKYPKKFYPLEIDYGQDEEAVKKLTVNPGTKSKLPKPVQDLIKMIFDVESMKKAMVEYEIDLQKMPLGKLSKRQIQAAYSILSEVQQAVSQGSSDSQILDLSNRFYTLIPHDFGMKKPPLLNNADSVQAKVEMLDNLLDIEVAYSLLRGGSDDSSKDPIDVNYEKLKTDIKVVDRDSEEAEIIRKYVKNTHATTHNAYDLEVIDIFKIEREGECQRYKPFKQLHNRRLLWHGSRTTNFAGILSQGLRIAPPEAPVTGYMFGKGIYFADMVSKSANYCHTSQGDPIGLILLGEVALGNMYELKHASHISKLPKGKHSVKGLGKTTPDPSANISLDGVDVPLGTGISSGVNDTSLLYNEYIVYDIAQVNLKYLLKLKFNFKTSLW
Chain of Epidermal growth factor receptor (P00533 whole entry): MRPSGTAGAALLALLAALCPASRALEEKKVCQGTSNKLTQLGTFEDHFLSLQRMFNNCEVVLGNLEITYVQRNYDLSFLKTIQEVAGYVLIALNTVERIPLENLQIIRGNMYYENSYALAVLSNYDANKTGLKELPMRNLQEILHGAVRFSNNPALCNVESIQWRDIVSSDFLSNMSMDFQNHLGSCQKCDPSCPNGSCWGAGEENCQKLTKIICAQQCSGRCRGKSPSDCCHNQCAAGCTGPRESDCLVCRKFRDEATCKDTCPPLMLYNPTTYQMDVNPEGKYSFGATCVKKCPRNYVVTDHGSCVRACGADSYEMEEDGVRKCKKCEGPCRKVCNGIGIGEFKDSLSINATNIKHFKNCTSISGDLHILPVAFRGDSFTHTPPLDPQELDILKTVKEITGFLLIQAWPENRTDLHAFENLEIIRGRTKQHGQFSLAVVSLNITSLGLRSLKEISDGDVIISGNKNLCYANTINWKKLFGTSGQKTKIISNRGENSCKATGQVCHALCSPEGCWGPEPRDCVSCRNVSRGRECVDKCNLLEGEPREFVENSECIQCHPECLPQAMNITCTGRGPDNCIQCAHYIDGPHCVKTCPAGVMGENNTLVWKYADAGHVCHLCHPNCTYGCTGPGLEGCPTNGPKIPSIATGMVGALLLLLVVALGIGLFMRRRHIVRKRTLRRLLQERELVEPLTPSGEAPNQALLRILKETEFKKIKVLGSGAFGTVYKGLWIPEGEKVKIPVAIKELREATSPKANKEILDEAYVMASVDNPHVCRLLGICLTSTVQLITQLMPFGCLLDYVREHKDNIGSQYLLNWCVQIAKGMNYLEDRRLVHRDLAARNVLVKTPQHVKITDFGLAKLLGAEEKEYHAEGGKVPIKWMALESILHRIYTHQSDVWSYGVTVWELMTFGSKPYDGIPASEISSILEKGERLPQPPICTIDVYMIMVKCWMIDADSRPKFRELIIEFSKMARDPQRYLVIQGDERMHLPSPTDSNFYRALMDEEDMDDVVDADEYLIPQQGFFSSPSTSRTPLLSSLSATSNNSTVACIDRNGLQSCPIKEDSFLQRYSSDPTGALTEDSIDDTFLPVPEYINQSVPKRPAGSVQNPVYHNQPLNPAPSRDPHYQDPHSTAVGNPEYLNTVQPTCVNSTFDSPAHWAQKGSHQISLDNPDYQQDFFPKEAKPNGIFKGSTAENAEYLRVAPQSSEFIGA
Chain of Protein cereblon/Poly [ADP-ribose] polymerase 1 (P09874 whole entry): as the sequence (P09874 whole entry) above
Chain of Protein cereblon/Poly [ADP-ribose] polymerase 1 (Q96SW2 whole entry): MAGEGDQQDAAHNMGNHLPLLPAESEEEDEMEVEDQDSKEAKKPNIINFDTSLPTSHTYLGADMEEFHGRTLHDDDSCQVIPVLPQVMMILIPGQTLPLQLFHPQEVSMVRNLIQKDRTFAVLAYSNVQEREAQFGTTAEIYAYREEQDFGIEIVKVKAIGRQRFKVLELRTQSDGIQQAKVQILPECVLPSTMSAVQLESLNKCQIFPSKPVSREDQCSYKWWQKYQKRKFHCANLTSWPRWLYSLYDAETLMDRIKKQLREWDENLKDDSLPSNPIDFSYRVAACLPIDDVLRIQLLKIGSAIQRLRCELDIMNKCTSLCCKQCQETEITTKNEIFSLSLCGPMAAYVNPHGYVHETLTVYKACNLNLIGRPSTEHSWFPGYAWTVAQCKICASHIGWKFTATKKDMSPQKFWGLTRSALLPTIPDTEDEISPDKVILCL

As for `COc1ccc(C2=NC(c3ccc(Cl)cc3)C(c3ccc(Cl)cc3)N2C(=O)N2CCNC(=O)C2)c(OC(C)C)c1` (centres undefined), the pIC50 (in general, −log10 of the IC50, conventionally taken in molar units) in the test on MDA-MB-231 [1] was 4.55.
Regarding `CN(CCOCCOCCOCCOCCOCCOCCNc1cccc2c1C(=O)N(C1CCC(=O)NC1=O)C2=O)Cc1ccc(-c2[nH]c3cc(F)cc4c3c2CCNC4=O)cc1` (centres undefined), the DC50 – broadly, the midpoint of the concentration-degradation curve – in test [2] came to 36 nM.
In test [3], `O=C(c1ccc(Cc2n[nH]c(=O)c3cccnc23)cc1)N1CCCC1` showed a pIC50 of 7.44.
Consider `O=C1CN(Cc2cn(-c3ccccc3F)nn2)C2(CCCCC2)c2ccccc21`, for which the figures for the pIC50 (in the test on A549 [4]; in test [5]) were 6.64 and 7.84, respectively.
In the case of `O=C1CCc2cc(-c3ccccc3F)ccc2C2(CCCCC2)N1`, the figures for the pIC50 (in [5]; in the test on A549 [6]) were 7.70 and 5.70, respectively.
Consider `Cc1nnc2n1N=C(c1ccccc1OCCNCCCNCCOc1ccccc1C1=Nn3c(C)nnc3SC1)CS2`, for which the values for the negative-log IC50 (pIC50) in test [7] and in test [5] were 7.19 and 8.86, respectively.
As for `CC(c1nc2cccc(C(N)=O)c2[nH]1)N1CC(=O)N(c2cccc(C(F)(F)F)c2)C1=S` (centres undefined), the pIC50 is 6.00 with MDA-MB-436 and 7.60 in test [3].
As to `O=C1CCN(Cc2cn(-c3ccccc3F)nn2)C2(CCCCC2)c2ccccc21`, the pIC50 in the test with A549 [4] was 5.72.
Regarding `O=C1NCC(c2ccccn2)[C@@H](O)c2cc(Cl)c(Cl)cc21` (some centres undefined), the results for the pIC50 in test [8] and in test [9] were 4.13 and 6.44, respectively.
Consider `COc1ccc(C2=N[C@H](c3ccc(Cl)cc3)[C@H](c3ccc(Cl)cc3)N2C(=O)N2CCN(CC(=O)NCCOCCOCCOCCOCCn3cc(-c4ccc(-n5cc6cccc(C(N)=O)c6n5)cc4)nn3)C(=O)C2)c(OC(C)C)c1`, for which the Activity with MDA-MB-231 [10] was found to be 70%. The pIC50 in the test with MDA-MB-231 [1] is 5.07.
Compound `O=c1cc(-c2ccc(O)c(-c3c(O)cc(O)c4c(=O)cc(-c5ccc(O)cc5)oc34)c2)oc2cc(O)cc(O)c12` [AMENTOFLAVONE] showed a pIC50 in test [5] of 6.70.
As for `NC(=O)c1cccc2cn(-c3ccc([C@@H]4CCCNC4)cc3)nc12` [NIRAPARIB], the pIC50 in the test with MDA-MB-231 [11] was 4.22; with MDA-MB-231 [1], 4.48.
